Measurements as given in patent US11976083B2, “Inhibitors of peptidylarginine deiminases” (Gilead Sciences, Inc., priority 2020, dated 2024).

Target: T1, human PAD4 (Homo sapiens, UniProt Q9UM07)
T1 construct: human PAD4 (NM_012387), A2-P663, was PCR amplified; His-SUMO (N, cleaved yes); made in house; host or cells: E. coli BL21(DE3)
Assay: In vitro PAD4 BAEE biochemical assay
Details: BAEE substrate 3 mM, 5 nM PAD4, 2 mM calcium chloride; geometric mean of multiple experiments
Procedure, shortened: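 Assay was run at 25 °C using 3 mM BAEE and 5 nM human PAD4 after a 30 min compound preincubation; ammonia produced over 2 h was quantified by OPA-derived fluorescence. Full inhibition was defined by 50 µM BB-Cl-Amidine, and IC50 came from variable-slope nonlinear regression.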

T1 sequence (Q9UM07 2-663): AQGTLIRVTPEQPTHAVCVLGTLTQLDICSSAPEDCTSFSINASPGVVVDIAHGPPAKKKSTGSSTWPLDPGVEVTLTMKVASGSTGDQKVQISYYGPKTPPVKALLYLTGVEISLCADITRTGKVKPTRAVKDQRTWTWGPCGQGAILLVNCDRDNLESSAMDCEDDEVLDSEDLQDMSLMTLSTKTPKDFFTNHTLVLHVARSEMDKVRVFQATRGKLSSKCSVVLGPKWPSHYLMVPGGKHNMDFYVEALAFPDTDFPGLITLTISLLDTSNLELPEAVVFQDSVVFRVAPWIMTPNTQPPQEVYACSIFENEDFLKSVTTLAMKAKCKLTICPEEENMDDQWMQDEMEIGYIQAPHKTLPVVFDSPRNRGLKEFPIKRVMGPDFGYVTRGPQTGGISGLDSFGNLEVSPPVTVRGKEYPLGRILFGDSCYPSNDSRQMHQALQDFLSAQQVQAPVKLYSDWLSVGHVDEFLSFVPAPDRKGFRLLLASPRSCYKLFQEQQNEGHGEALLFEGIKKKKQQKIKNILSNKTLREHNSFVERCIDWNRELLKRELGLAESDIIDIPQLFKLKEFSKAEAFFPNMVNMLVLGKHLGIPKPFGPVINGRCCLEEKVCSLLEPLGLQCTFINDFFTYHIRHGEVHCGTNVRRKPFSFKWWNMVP

SMILES	IC50 [µM]
COc1cc(C(=O)N[C@H](C)CN)cc2nc(-c3cc4ccc5nc4n3CCCCC[C@@H]3CC3C(=O)N[C@@H]5C)n(C)c12 (stereo partly shown) [Example 509, ~{N}-[(1~{R})-2-amino-1-methyl-ethyl]-7-methoxy-1-methyl-2-[(2~{R},7~{R})-2-methyl-4-oxo-3,13,19-triazatetracyclo[11.5.2.0^ {5,7}.0^{16,20}]icosa-1(19),14,16(20),17-tetraen-14-yl]benzimidazole-5-carboxamide]	0.146
COc1cc(C(=O)N2CC[C@@H](OC)[C@@H](N)C2)cc2nc(-c3cc4ccc5cc4n3CCCCCCC(C)(C)C(=O)N[C@@H]5C)n(C)c12 [Example 173, (11~{R})-17-[5-[(3~{S},4~{R})-3-amino-4-methoxy-piperidine-1-carbonyl]-7-methoxy-1-methyl-benzimidazol-2-yl]-8,8,11-trimethyl-1,10-diazatricyclo[10.5.2.0^{15,18}]nonadeca-12(19),13,15(18),16-tetraen-9-one]	0.109
COc1cc(C(=O)N2[C@H]3CC[C@@H]2[C@H](N)C3)cc2nc(-c3cc4ccc5nc4n3C[C@H]3C[C@H]3CCCCC(=O)N[C@@H]5C)n(C)c12 [Example 144, (3~{S),5~{R},12~{R})-18-[5-[(1~{R},2~{R},4~{S})-2-amino-7-azabicyclo[2.2.1]heptane-7-carbonyl]-7-methoxy-1-methyl-benzimidazol-2-yl]-12-methyl-1,11,20-triazatetracyclo[11.5.2.0^{3,5}.0^{16,19}] icosa-13(20),14,16(19),17-tetraen-10-one]	0.031
COc1cc(C(=O)N2C[C@H](N)[C@@H]3CC[C@H]2C3)cc2nc(-c3cc4ccc5nc4n3C[C@H]3C[C@H]3CC[C@]3(F)C[C@H]3C(=O)N[C@@H]5C)n(C3CC3)c12 [Example 772, (3~{S},5~{R},8~{S},10~ {S},13~{R})-19-[5-[(1~{S},4~ {R},5~{R})-4-amino-2-azabicyclo[3.2.1]octane-2-carbonyl]-1-cyclopropyl-7-methoxy-benzimidazol-2-yl]-8-fluoro-13-methyl-1,12,21-triazapentacyclo[12.5.2.0^ {3,5).0^{8,10}.0^{17,20}] henicosa-14(21), 15,17(20),18-tetraen-11-one]	0.006
COc1cc(C(=O)N2CC[C@@H](OC)[C@@H](N)C2)cc2nc(-c3cc4ccc5nc4n3CCC/C=C/[C@@H]3C[C@@]3(C(F)(F)F)C(=O)N[C@@H]5C)n(C)c12 [Example 635, (2~{R},5~{S},7~{S},8~{E})-14-[5-[(3~{S},4~{R})-3-amino-4-methoxy-piperidine-1-carbonyl]-7-methoxy-1-methyl-benzimidazol-2-yl]-2-methyl-5-(trifluoromethyl)-3,13,19-triazatetracyclo[11.5.2.0^ {5,7}.0^{16,20}] icosa-1(19),8,14,16(20), 17-pentaen-4-one]	0.682
COc1cc(C(=O)N2CC[C@@H](OC)[C@@H](N)C2)cc2nc(-c3cc4ccc5nc4n3CCCCCCC(C)(C)C(=O)NC5C(F)(F)F)n(C)c12 (stereo partly shown) [Example 785, 17-[5-[(3~{S},4~{R})-3-amino-4-methoxy-piperidine-1-carbonyl]-7-methoxy-1-methyl-benzimidazol-2-yl]-8,8-dimethyl-11-(trifluoromethyl)-1,10,19-triazatricyclo [10.5.2.0^{15,18}]nonadeca-12,14,16,18-tetraen-9-one]	0.954
COc1cc(C(=O)N2CC3(CCCCNC3)C2)cc2nc(-c3cc4ccc5nc4n3CC(F)(F)CCC[C@@H]3C[C@H]3C(=O)N[C@@H]5C)n(C)c12 [Example 632, (2~{R},5~{R},7~{R})-14-[5-(2,9-diazaspiro[3.6]decane-2-carbonyl)-7-methoxy-1-methyl-benzimidazol-2-yl]-11,11-difluoro-2-methyl-3,13,19-triazatetracyclo [11.5.2.0^{5,7}.0^{16,20}] icosa-1(19),14,16(20), 17-tetraen-4-one]	0.046
COc1cc(C(=O)N2[C@H]3CC[C@@H]2[C@H](N)C3)cc2nc(-c3cc4ccc5nc4n3CCCCCC[C@H](C)C(=O)N[C@@H]5C)c(C)n12 [Example 124, (8~{S},11~{R})-17-[7-[(1~{R},2~{R},4~{S})-2-amino-7-azabicyclo[2.2.1]heptane-7-carbonyl]-5-methoxy-3-methyl-imidazo[1,2-a]pyridin-2-yl]-8,11-dimethyl-1,10,19-triazatricyclo[10.5.2.0^{15,18}]nonadeca-12(19),13,15(18),16-tetraen-9-one]	0.012
COc1cc(C(=O)N2[C@H]3CC[C@@H]2[C@H](N)C3)cc2nc(-c3cc4ccc5cc4n3CCCCCCCC(=O)N[C@@H]5C)n(C)c12 [Example 215, (11˜{R})-17-[5-[(1˜{R},2˜{R},4˜{S})-2-amino-7-azabicyclo[2.2.1]heptane-7-carbonyl]-7-methoxy-1-methyl-benzimidazol-2-yl]-11-methyl-1,10-diazatricyclo[10.5.2.0^{15,18}]nonadeca-12(19),13,15(18),16-tetraen-9-one]	0.02

Results, then the compound that gave them:

IC50 [µM]	SMILES
0.021	C[C@H]1NC(=O)[C@@H]2C[C@@]2(F)CCCCCn2c(-c3nc4cc(C(=O)N5C[C@H](N)[C@@H]6CC[C@H]5C6)cc(F)c4n3CC(F)F)cc3ccc1nc32 [Example 920, (2~{R},5~{S},7~{S})-14-[5-[(1~{S),4~{R},5~{R})-4-amino-2-azabicyclo[3.2.1]octane-2-carbonyl]-1-(2,2-difluoroethyl)-7-fluoro-benzimidazol-2-yl]-7-fluoro-2-methyl-3,13,19-triazatetracyclo [11.5.2.0^{5,7}.0^{16,20}] icosa-1(19),14,16(20),17-tetraen-4-one]
0.064	COc1cc(C(=O)N2C[C@H](N)[C@@H]3CC[C@H]2C3)cc2nc(-c3cc4ccc5nc4n3CC(F)(F)CCCOC3(CC3)C(=O)N[C@@H]5C)n(C3CC3)c12 [Example 931, (11~{R})-17-[5-[(1~{S},4~{R}, 5~{R})-4-amino-2-azabicyclo [3.2.1]octane-2-carbonyl]-1-cyclopropyl-7-methoxy-benzimidazol-2-yl]-3,3-difluoro-11-methyl-spiro[7-oxa-1,10,19-triazatricyclo[10.5.2.0^ {15,18}]nonadeca-12(19), 13,15(18),16-tetraene-8,1′-cyclopropane]-9-one]
0.038	C[C@H]1NC(=O)c2ccc(Cl)nc2CCCC(F)(F)Cn2c(-c3nc4cc(C(=O)N5C[C@H](N)[C@@H]6CC[C@H]5C6)cc(F)c4n3C3CC3)cc3ccc1nc32 [Example 814, (2~{R})-17-[5-[(1~{S), 4~{R},5~{R})-4-amino-2-azabicyclo[3.2.1]octane-2-carbonyl]-1-cyclopropyl-7-fluoro-benzimidazol-2-yl]-8-chloro-14,14-difluoro-2-methyl-3,9,16,22-tetrazatetracyclo[14.5.2.0^ {5,10).0^{19,23}]tricosa-1(21),5(10),6,8,17,19,22-heptaen-4-one]
0.038	COc1cc(C(=O)N2CC[C@@H](OC)[C@@H](N)C2)cc2nc(-c3cc4ccc5nc4n3CCCC(F)(F)C[C@H]3C[C@H]3C(=O)N[C@@H]5C)n(C)c12 [Example 859, (2~{R},5~{R},7~{R})-14-[5-[(3~{S},4~{R})-3-amino-4-methoxy-piperidine-1-carbonyl]-7-methoxy-1-methyl-benzimidazol-2-yl]-9,9-difluoro-2-methyl-3,13,19-triazatetracyclo [11.5.2.0^{5,7}.0^{16,20}] icosa-1(19),14,16(20),17-tetraen-4-one]
